By melting point is commonly meant the temperature, or range, at which the solid turns liquid. The molecule `Cc1nc2sccn2c1C1=NNC(=O)CO1` showed a melting point of 274 to 275 °C.

For the molecule `CC(C)(n1cncn1)C(O)(Cn1cncn1)c1ccc(F)cc1F` (stereo unspecified), the melting point was in the range of 155 to 157 °C.

As to `COc1ccc(/C=C(\C#N)c2ccccn2)cc1OC1CCCC1`, the melting point lay within 82.5 to 83 °C.

The molecule `CC(C)(C)OC(=O)Nc1cc(OCC#N)c(I)cc1[N+](=O)[O-]` yielded a melting point of 125 °C.

For the molecule `Cc1ccc(-c2cc(C(F)(F)F)nn2-c2ccc(C#N)cc2)cc1`, the melting point lay in the range of 125 to 126 °C.

In turn, `Cc1cc(C)c2c(c1O)C(=O)C1CCCCC21` (stereo unspecified) came in with a melting point of 64 to 65 °C.

As for `O=C(CCCCl)c1cc2c3c(c1)CCN3C(=O)CC2`, the melting point is 123 to 124 °C.

`COc1ccc(OCC(O)CN2CCC(N3CCNC3=O)CC2)cc1` (stereo unspecified) displayed a melting point of 148 to 150 °C.

Turning to `O=C1Cc2cc(NC(=O)C(=O)N3CCC(Cc4cccc(F)c4)CC3)ccc2N1`, the melting point is 182 to 184 °C.

`COCOc1cc(OC)cc(C)c1C(=O)O` yielded a melting point of 111 to 112 °C.

Regarding `COc1ccc(C=Nc2cc(OC)c(OC)c(OC)c2)cc1O[Si](C)(C)C(C)(C)C`, the melting point fell in the range of 90 to 91 °C.

Molecule `CCOCn1cc(Cl)c(O)cc1=O` returned a melting point of 217 to 219 °C.

The molecule `OC(CSc1ncnc2[nH]ncc12)CN1CCN(C(c2ccc(Cl)cc2)c2ccc(Cl)cc2)CC1` (stereo unspecified) displayed a melting point of 115 to 118 °C.

As to `Cc1[nH]c2ccccc2c1CCC(=O)N1CCN(c2ccccc2)CC1`, the melting point lay within 120 to 121 °C.

`CC(Oc1cc(O)ccc1[N+](=O)[O-])C(=O)O` (stereo unspecified) returned a melting point of 190 to 195 °C.

Take `OCCc1ccc(Nc2ncc3c(n2)-c2ccccc2C(c2cccc(Br)c2)C3)cc1` (stereo unspecified): the melting point fell in the range of 88 to 90 °C.

Take `COc1ccc(CN2CCC(c3cn(Cc4cccs4)c4cc(F)ccc34)CC2)cc1C(=O)O`: the melting point lay in the range of 245 to 246 °C.

In the case of `Clc1ccc2nc(-c3ccco3)c(I)n2n1`, the melting point lay within 260 to 263 °C.

The molecule `CC(C)(C)c1cc(C=O)c(O)c(S(C)(=O)=O)c1` gave a melting point of 134 to 136 °C.

Molecule `COCCNC(=O)c1cc2cc(OCCNC[C@H](O)COc3ccccc3)ccc2o1` displayed a melting point of 95 to 96 °C.

`CCCC1CCC(O)CC1` (stereo unspecified) gave a melting point of 109 °C.

`O=C(O)CCc1ccccc1OCCCCCOc1ccc2c(c1CCCc1ccccc1)OCCC2=O`: the melting point is 98 to 99 °C.

The molecule `c1cc(NCC2CCCO2)c2cc3c(cc2n1)OCO3` (stereo unspecified) displayed a melting point of 276 to 278 °C.

Consider `OCCn1cc(-c2ccc3nnn(Cc4ccc(F)cc4)c3n2)cn1`, for which the melting point fell in the range of 204 to 206 °C.

`O=C(O)c1ccc2c3c(ccc(C(O)=NC4CCCCC4)c13)CC2` displayed a melting point of 264 to 265 °C.

`Fc1ccc(-c2ncnc(C(F)F)c2Cl)c(F)c1` came in with a melting point of 69 to 71 °C.

`N#Cc1ccc(-n2c(N)nc3ccccc32)cc1Cl` came in with a melting point of 245 to 248 °C.

For the molecule `CCC(=O)NCCC1CCc2cc(Br)c3c(c21)C=CCO3` (stereo unspecified), the melting point lay within 110 to 111 °C.

For the molecule `CC1(NC(=O)C(F)(F)F)CN(c2c(F)cc3c(=O)c(C(=O)O)cn(CCF)c3c2F)C1`, the melting point fell in the range of 205 to 215 °C.

Regarding `N#Cc1ccccc1NCc1nc2ccc(F)cc2c(=O)n1-c1cccnc1Cl`, the melting point was 183 to 187 °C.

With `C=CCSc1ncn(C(=O)N(CC=C)CC=C)n1`, the melting point lay within 27 to 30 °C.

In turn, `COc1ccc2[nH]c3c(c2c1)C[C@@]1(C)C(=O)N(CCCN(C)C)C(=O)N1[C@@H]3c1cccc(O)c1` (racemic) yielded a melting point of 228 to 231 °C.

`Cn1c(C(F)(F)F)cc(=O)n(-c2cc(OC3CC=CNC3=O)c(Cl)cc2F)c1=O` (stereo unspecified) gave a melting point of 91 °C.

On to `Cc1oc(C=Cc2ccc(Cl)cc2)nc1CO`, for which the melting point was 129 to 130 °C.

Molecule `CC(c1ccc(C(F)(F)F)cc1[N+](=O)[O-])[N+](=O)[O-]` (stereo unspecified) gave a melting point of 48 °C.

With `Cc1ccccc1-c1cc2cnc(N)nc2n(C)c1=O`, the melting point amounted to 239 °C.

For `COC(=O)Cc1csc(NS(=O)(=O)c2cccc(Cl)c2C)n1`, the melting point is 187 °C.

`O=C(Nc1cccc([N+](=O)[O-])c1)NC1CC(C(=O)O)Nc2cc(Cl)cc(Cl)c21` (stereo unspecified) registered a melting point of 209 to 210 °C.

`Cc1cc(-c2nc3c(C)cc(Cl)nn3c2-c2ccnc(NC(=O)c3ccc(F)cc3)c2)ccc1F`: the melting point was in the range of 235 to 236 °C.

In turn, `COc1ccc(Br)c(C(=O)N2CCN(S(=O)(=O)c3c(F)cccc3F)CC2)c1` displayed a melting point of 154 °C.

Take `CCCc1nc(SC)c(C(O)(C(=O)O)c2ccccc2)n1Cc1ccc(-c2ccccc2S(=O)(=O)NC(=O)NCc2ccccc2)cc1` (stereo unspecified): the melting point came to 170 °C.

`Cc1cc(NCc2ccccc2)c(N)c(Cl)n1` came in with a melting point of 177 to 178 °C.

The molecule `Cc1cc(C(C)(C)C#N)cc(C(C)(C)C#N)c1` returned a melting point of 126 to 127 °C.

The molecule `CS(=O)(=O)Nc1cc2c(cc1Oc1ccc(F)cc1F)CCC2` came in with a melting point of 85 to 87 °C.

Regarding `Nc1cn(C2CCN(c3c(F)c(N)c4c(=O)c(C(=O)O)cn(C5CC5)c4c3F)C2)nn1` (stereo unspecified), the melting point lay within 210 to 213 °C.

Consider `CC(C)(C)OC(=O)NC1CCc2cc(C(=O)O)ccc2C1` (stereo unspecified), for which the melting point fell in the range of 210 to 213 °C.

Consider `CC(=Cc1ccc2c(c1)S(=O)(=O)c1cc(C=C(C)c3ccccc3)ccc1N2C)c1ccccc1`, for which the melting point is 190 to 193 °C.

On to `Cc1ccccc1CC(=NC#N)NC(NC(=O)Cc1ccc(F)c(F)c1)C(C)(C)C` (stereo unspecified), for which the melting point fell in the range of 178 to 179 °C.

`CC(=O)Nc1cc(OCCC(=O)O)ccc1Oc1ccccc1` displayed a melting point of 138 to 140 °C.

Molecule `O=C(O)C#Cc1c(Cl)cc(Cl)cc1Cl` showed a melting point of 170 to 175 °C.

In turn, `CCOC1OC(C(O)CO)C(O)C1O` (stereo unspecified) showed a melting point of 59 to 60 °C.

Molecule `COCC(C)c1ccc(N2Cc3ccc(OC)cc3C2=O)cc1` (stereo unspecified) yielded a melting point of 116 to 118 °C.

In turn, `NOCC=Cc1ccc(Br)cc1` yielded a melting point of 35 to 38 °C.

The molecule `CCCn1c(=S)[nH]c(=S)c2[nH]c(C3CC3)nc21` came in with a melting point above 245 °C.

As for `C=C(CNc1ccc2ncnc(Nc3cccc(Br)c3)c2c1)C(=O)OC`, the melting point was 157 to 162 °C.

The molecule `COC(C)c1ccc(O)cc1` (single isomer, unassigned; (+)) had a melting point of 114 to 115 °C.

`CC(=O)S[C@H]1CNC(=O)C1` gave a melting point of 114 to 116 °C.

The molecule `CS(=O)(=O)OCc1cc(I)cc(I)c1I` came in with a melting point of 130 to 133 °C.

For `Cc1ccc(NC(=O)N[C@]2(C3CCCCC3)N=Cc3ccccc3N(C)C2=O)cc1N(C)c1nnn[nH]1`, the melting point lay within 223 to 225 °C.

In turn, `COc1ccc(CCc2cc3cc(C#N)ccc3o2)c(CC(=O)OCc2ccccc2)c1` displayed a melting point of 127 to 128 °C.

`CON(C)C(=O)[C@H]1CCn2c(cc3ccccc32)C1`: the melting point is 78 to 80 °C.

Molecule `CCOC(=O)C(=CNc1ccccc1OC)C(C)=O` had a melting point of 103 to 105 °C.

In the case of `O=S1(=O)c2cccc3cccc(c23)N1CCCN1CC=C(c2c[nH]c3ccc(Cl)cc23)CC1`, the melting point is 189 °C.

In turn, `NS(=O)(=O)c1cc(C(=O)O)cc(CCn2cccc2)c1Cl` gave a melting point of 224 to 228 °C.

`CN(CCN1C(=O)c2ccccc2C1=O)C(c1ccccc1)c1ccccc1` gave a melting point of 130 to 131 °C.

`CCCCc1nn(CC(=O)c2ccccc2)c(=O)n1Cc1ccc(-c2ccccc2-c2nnn[nH]2)cc1` returned a melting point of 89 to 92 °C.

As for `COc1ccc(C2=NN(Cc3ccc(C(=O)O)cc3)C(=O)[C@H]3CC=CC[C@@H]23)cc1OC` (relative stereo), the melting point is 192 to 193 °C.

In the case of `Cc1c(NC(=O)c2ccc(OCC3CCOC3)cc2)ccc2cc(CNCC3CCOCC3)cnc12` (stereo unspecified), the melting point lay in the range of 122 to 123 °C.

The molecule `O=c1c2c(nc3n1CCc1c-3[nH]c3cc(Cl)cc(Cl)c13)CCCC2` gave a melting point of 296 to 297 °C.

`COC(=O)C(C#N)=CC1=C(N2CCCC2)CCCC1` gave a melting point of 133 to 134 °C.

`O=c1ccc(C(F)(F)F)cn1Cc1ccccc1NCCO`: the melting point lay within 114 to 115 °C.

With `CCCCN1C(=O)CC(=O)N(C)c2ccccc21`, the melting point lay within 141 to 143 °C.

Regarding `COc1ccc(Nc2nc(OCC3CCCCC3)c3[nH]cnc3n2)cc1`, the melting point fell in the range of 189 to 192 °C.

For the molecule `Cc1nnc(CCl)n1-c1ccc(Cl)cc1C(=O)c1ccccc1Cl`, the melting point is 127 to 130 °C.

In the case of `Cc1ccc(C(Cn2cncn2)=NOCc2c(Cl)cccc2Cl)c(Cl)c1`, the melting point was 97 to 99 °C.

`N#Cc1cccn1-c1ccc(CN2C(=O)c3ccccc3C2=O)cc1` registered a melting point of 167 to 168 °C.

In the case of `CSCCn1cc(Cl)nc(N2CCc3cc(Cl)cc(Cl)c32)c1=O`, the melting point is 127 to 128 °C.

Turning to `CCn1c(=O)c2[nH]c(/C=C/c3cc(C(F)(F)F)cc(C(F)(F)F)c3)nc2n(CC)c1=O`, the melting point was above 280 °C.

`Cc1ccc(S(C)(=O)=O)c(C)c1Cl`: the melting point lay within 116 to 119 °C.

With `CC1=Cc2cc(C#N)ccc2OC1(C)C`, the melting point came out at 55 °C.

For `O=C1Cc2c(OCc3ccccc3)cc(OCc3ccccc3)cc2O[C@@H]1c1ccc(OCc2ccccc2)c(OCc2ccccc2)c1`, the melting point came out at 144 °C.

For the molecule `O=C(O)c1ccc(C2=NCCO2)nc1`, the melting point was in the range of 286 to 287 °C.

Molecule `CC(=O)C(Cl)=NNc1ccc(Cl)cc1` returned a melting point of 168 to 171 °C.

In turn, `Cc1cccc(-c2nc(C(C)C)[nH]c2-c2ccc(F)c(-c3ccc(NS(=O)(=O)C4CC4)cc3)c2)n1` had a melting point of 119 to 129 °C.

For the molecule `COc1cccc(Oc2c(NS(=O)(=O)c3ccc(C(C)(C)C)cc3)ncnc2OCCOc2ncc(Br)cn2)c1`, the melting point worked out at 168 °C.

As to `CCCc1n[nH]c(=O)n1C`, the melting point is 77 °C.

Molecule `COc1ccc(-c2cc(=S)[nH]nc2-c2ccc(OC)c(F)c2)cc1` showed a melting point of 222 to 223 °C.

The molecule `CCOC(=O)c1cnn2c(-c3cccnc3)ccnc12` displayed a melting point of 170 to 171 °C.

Regarding `CCOCc1nc2c(N)nc3cccnc3c2n1CC(C)(C)NC(=O)NC(C)C`, the melting point was 172 to 174 °C.

In the case of `CCC1C(C)=NN=C(c2ccc(OC)c(OC)c2)c2cc(Cl)ccc21` (stereo unspecified), the melting point is 185 to 187 °C.

Turning to `CN(Cc1csc(N)c1C(=O)c1ccc(Cl)cc1)c1ccccc1`, the melting point was in the range of 129 to 131 °C.

These data come from a melting point compilation (Tetko et al.; mined from patent text by program, amines drawn as free bases though some values may be those of a salt).
